Measured values taken from PubChem BioAssay (NCI).
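A five-concentration, 48-hour dose response in 96-well plates underlies each endpoint, interpolated linearly between surrounding concentrations. Here, GI50 denotes the concentration required for 50% inhibition of growth. Definition used: TGI = concentration required for complete inhibition of growth.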

Columns and labels:
Experiment in all cases: inhibition of tumour cell growth, NCI panel, 48 h
MDA-MB-435 = test system: MDA-MB-435
LOX IMVI melanoma = test system: LOX IMVI melanoma
COLO 205 colon = test system: COLO 205 colon
OVCAR-8 ovarian = test system: OVCAR-8 ovarian
NCI/ADR-RES ovarian = test system: NCI/ADR-RES ovarian
HCT-15 colon = test system: HCT-15 colon
ACHN renal = test system: ACHN renal
A498 renal = test system: A498 renal
EKVX NSCLC = test system: EKVX NSCLC
MALME-3M melanoma = test system: MALME-3M melanoma

Structure (SMILES)	GI50 (MDA-MB-435)	TGI (MDA-MB-435)	GI50 (LOX IMVI melanoma)	TGI (LOX IMVI melanoma)	GI50 (COLO 205 colon)	TGI (COLO 205 colon)	GI50 (OVCAR-8 ovarian)	TGI (OVCAR-8 ovarian)	GI50 (NCI/ADR-RES ovarian)	TGI (NCI/ADR-RES ovarian)	GI50 (HCT-15 colon)	TGI (HCT-15 colon)	GI50 (ACHN renal)	TGI (ACHN renal)	GI50 (A498 renal)	TGI (A498 renal)	TGI (EKVX NSCLC)	TGI (MALME-3M melanoma)	GI50 (EKVX NSCLC)	GI50 (MALME-3M melanoma)
Cc1ccc2[nH]cc(-c3nc(-c4c[nH]c5ncccc45)cs3)c2c1	> 100 µM	> 100 µM	> 100 µM	> 100 µM	0.349 µM	> 100 µM	> 100 µM	> 100 µM	> 100 µM	> 100 µM	> 100 µM	> 100 µM	> 100 µM	> 100 µM	3.11 µM	> 100 µM	–	–	–	–
CCCC/C=C1\CCC(CN2CCCCC2)C1=O (centres undefined)	–	> 100 µM	–	> 48.2 µM	–	29 µM	–	33.1 µM	–	> 100 µM	–	20.6 µM	–	44.3 µM	–	31.6 µM	31.9 µM	15.4 µM	–	–
COc1ccc2[nH]c(C(=O)N3CC(CCl)c4ccc(N)cc43)cc2c1 (centres undefined)	–	0.405 µM	–	0.601 µM	–	–	–	> 68.9 µM	–	2.28 µM	–	> 50.4 µM	–	0.375 µM	–	–	2.78 µM	0.302 µM	–	–
CC(=O)OC(Cc1cc(C=C(C(F)(F)F)C(F)(F)F)cc(C)n1)(C(F)(F)F)C(F)(F)F	–	2.83 µM	–	3.49 µM	–	2.99 µM	–	> 100 µM	–	> 100 µM	–	> 100 µM	–	2.84 µM	–	3.3 µM	5.87 µM	> 20.8 µM	–	–
O=C1C(Br)=CC2([N+](=O)[O-])CCNc3c(O)c4c5c(c3C2=C1Br)=NCCC=5C=N4 (centres undefined)	–	–	–	6.4 µM	–	0.133 µM	–	2.38 µM	–	6.52 µM	–	2.16 µM	–	–	–	14.5 µM	7.43 µM	–	–	–
COc1ccc2c3c1OC1CC(O)C=CC31CCN(C)C2 (centres undefined)	–	–	–	> 150 µM	–	> 150 µM	–	> 15 µM	–	> 150 µM	–	> 150 µM	–	–	–	> 150 µM	> 150 µM	> 150 µM	–	–
COC(=O)/C=C\Sc1ccn(/C=C\C(=O)OC)c(=S)n1	–	86.6 µM	–	9.35 µM	–	> 100 µM	–	38.1 µM	–	40.7 µM	–	42.6 µM	–	32.2 µM	–	35.6 µM	68.2 µM	53.9 µM	–	–
CN(C)c1ccc(N2C(=S)SC(=Nc3ccccc3)C2=Nc2ccccc2)cc1	–	> 100 µM	–	–	–	> 100 µM	–	> 100 µM	–	> 100 µM	–	> 100 µM	–	–	–	> 100 µM	–	> 100 µM	–	–
CC1(C)OP23(NC(=O)OC2(C(F)(F)F)c2ccccc2O3)OC1(C)C (centres undefined)	–	–	–	> 100 µM	–	–	–	> 100 µM	–	–	–	> 100 µM	–	> 100 µM	–	–	–	> 100 µM	–	–
CCOC(=O)/C(O)=C1\C(=O)N(C)C(=O)C1c1ccc(OC)c(OC)c1 (centres undefined)	–	–	–	> 100 µM	–	> 100 µM	–	> 100 µM	–	> 100 µM	–	> 100 µM	–	–	–	> 100 µM	> 100 µM	> 100 µM	–	–
CC(=O)O[C@H]1CC[C@@]2(C)C(=CC[C@@H]3[C@@H]2CC[C@]2(C)C(c4cccnc4)=CC[C@@H]32)C1	3.03 µM	> 100 µM	6.49 µM	> 100 µM	5.1 µM	> 100 µM	19.3 µM	> 100 µM	3.99 µM	34.2 µM	4.48 µM	> 100 µM	4.88 µM	43.9 µM	10.4 µM	74 µM	> 100 µM	33.9 µM	4.62 µM	3.24 µM
